The text below walks through data of PMC6316600, “Analgesic Activity of Acid-Sensing Ion Channel 3 (ASIС3) Inhibitors: Sea Anemones Peptides Ugr9-1 and APETx2 versus Low Molecular Weight Compounds” (Marine Drugs, 2018).

The test system of one series is ASIC3. The conditions noted are these: cited from earlier work. The text has this: (§1) An inhibition of ASIC3 was reported to be an attractive approach to producing analgesia. […] Other nonspecific substances can also influence ASIC3 activity.
The test system of series [1] is CFA-induced thermal hyperalgesia. The conditions noted are these: rats; cited from earlier work. The protocol: An inhibition of ASIC3 was reported to be an attractive approach to producing analgesia. […] Other nonspecific substances can also influence ASIC3 activity. […] Several ligands with inhibitory properties were found for this receptor, each of which was able to induce analgesia in animal tests. The most well-known inhibitor APETx2 in various studies has been tested on models of acid-induced muscle pain model, CFA-induced inflammatory pain model (at doses of 0.07, 0.22 and 2.2 µM). Ugr9-1 was studied in models of CFA-induced thermal hyperalgesia and acetic acid writhing test (at doses of 0.5, 0.1, and 0.01 mg/kg). […] The nonspecific actions on other cellular targets and the changes of ASIC3 involvement in the inflammatory process induced by the high antagonists’ concentration for 2 h are suspected. We conclude that the inhibition of both components of ASIC3 currents could be beneficial but could be reversed by hormesis in high doses and during a long exposure to ...

Series [2] has as its system proton-gated currents in DRG neurons. Also noted: method as in PMID 25395088. The conditions noted are these: cited from earlier work.
A further series deals with animal models of pain. The conditions noted are these: cited from earlier work.
Series [3] deals with voltage-gated Na^+-channels. More on the design: method as in PMID 22648244. The conditions noted are these: cited from earlier work.
The next series relates to ASIC1b. To be noted: cited from earlier work.
From the text: as §1

The subject of a further series is ASIC1a. The conditions noted are these: cited from earlier work.
From the text: as §1

The test system of another series is mice. As to the kind of experiment: Open field test. Format: in vivo, CD-1 mice. The conditions noted are these: 1 mg/kg intramuscular, 4 h before; n = 6–7. As for the experimental part:
An open field test was carried out on mice to estimate the possible sedative effects of compounds administration. No statistically significant changes were detected between ASIC3 antagonist-treated groups and the control animals group in 5-min observations of 12 parameters.
Figure 2 Open field experiments on mice. Administration of compounds at a 1 mg/kg dose intramuscularly was done 4 h before of the measurements. (A) Travelling distance and (B) locomotion activity presented as mean ± SEM for 5-min recording period (n = 6–7).
Adult male CD-1 mice (Animal Breeding Facility Branch of Shemyakin-Ovchinnikov Institute of Bioorganic Chemistry, Russian Academy of Sciences, Pushchino, Russia) weighing 20–25 g were used. Animals that originally passed clinical examination that confirmed no deviations in health were divided into groups (at least eight male mice per group) using the principle of randomization. The average body weight of animals in each group was not statistically different between groups. Animals were housed at room temperature (23 ± 2 °C) and subjected to a 12-h light-dark cycle with food and water available ad libitum. All experiments were performed after receiving approval from the Animal Care and Use Committee of the Branch of the Institute of Bioorganic Chemistry, Russian Academy of Sciences (IBCh RAS) (Pushchino, Russia Federation). The samples were administered intramuscularly 2 h before testing (4 h in the open field test). The initial dose of 1 mg/kg was investigated for all samples, which was further reduced 5, 50, and 500 times for peptides.
In the locomotion measurements, exploration and anxiety were evaluated in the motor activity test on a computerized TSE Multi Conditioning System (TSE Systems GmbH, Bad Homburg, Germany). Four hours after the administration of the sample, the measurement was made, which lasted for 3 min. […]
The data significance in animal tests was determined by an analysis of variance followed by a Tukey’s test. […]

A further series has as its target T1, human ASIC3 (Homo sapiens, UniProt Q9UHC3).
T1 construct: host or cells: Xenopus laevis oocytes (cRNA injection)
T1 sequence (Q9UHC3 1-531): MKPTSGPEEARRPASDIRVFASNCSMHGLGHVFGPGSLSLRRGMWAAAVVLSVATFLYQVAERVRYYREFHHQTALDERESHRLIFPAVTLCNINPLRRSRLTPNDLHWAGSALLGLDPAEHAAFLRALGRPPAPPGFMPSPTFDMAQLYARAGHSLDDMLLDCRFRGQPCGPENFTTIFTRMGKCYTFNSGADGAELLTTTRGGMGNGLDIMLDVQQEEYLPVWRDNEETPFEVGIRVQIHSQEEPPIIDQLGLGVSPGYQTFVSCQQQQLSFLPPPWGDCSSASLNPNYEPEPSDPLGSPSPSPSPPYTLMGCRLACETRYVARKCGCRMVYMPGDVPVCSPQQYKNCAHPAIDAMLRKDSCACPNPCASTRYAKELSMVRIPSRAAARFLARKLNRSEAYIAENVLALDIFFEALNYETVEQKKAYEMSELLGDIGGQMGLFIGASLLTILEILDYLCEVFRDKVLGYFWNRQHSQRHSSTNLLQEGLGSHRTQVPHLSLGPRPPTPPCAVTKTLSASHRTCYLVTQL
As to the kind of experiment: Inhibition of transient hASIC3 current, two-electrode voltage clamp, Xenopus laevis oocytes. Format: cell-based. The protocol:
The activity of ligands was checked on human ASIC3 (hASIC3) channels expressed in Xenopus laevis oocytes. […] Two different protocols were used to reveal the effects of ligands on sustained and transient components of acid-induced hASIC3 currents. The influence of the compounds on the transient current amplitude was estimated after preincubation for 15 s before the activation in a low alkali bath solution (pH 7.8), which ensured an absence of steady-state desensitization for the transient current (Figure 1A). The compounds’ inhibition effectiveness was calculated using the value of maximal amplitudes. […] The inhibitory effect was concentration-dependent and fit well using a logistic equation.
Figure 1 Comparison of ligands’ antagonistic effects on hASIC3 channels. Whole-cell currents were induced by pH drops and recorded at the holding potential −50 mV. (A) Effect of ligands on the transient component of current at conditioning pH 7.8. The control trace is shown first; (B) Effect of ligands on the sustained component at conditioning pH 7.3. The black line is the control trace, and the red line is the trace of activation in the presence of a ligand. Dose-response curves for transient (C) and sustained (D) currents’ inhibitions are shown. Data are shown as mean ± SEM (n = 4–6) and fitted with the logistic equation (solid lines).
X. laevis oocytes were removed surgically and defolliculated by collagenase (Sigma-Aldrich, Moscow, Russia). Oocytes were injected with 2.5 to 10 ng of human ASIC3 cRNA (AF057711.1). The cRNA transcripts were synthesised from a NaeI-linearized ASIC3 cDNA template (pcDNA3.1+humanASIC3 subcloned from clone EX-Q0260- B02 (GeneCopoeia, Inc., Rockville, MD USA) using a HiScribe T7 High Yield RNA Synthesis Kit (New England Biolabs, Ipswich, MA, USA) according to the manufacturer’s protocol for capped transcripts. After the injection, oocytes were kept for 3 to 6 days at 19° in a ND-96 medium containing (in mM) 96 NaCl, 2 KCl, 1.8 CaCl2, 1 MgCl2, and 5 HEPES titrated to pH 7.4 with NaOH supplemented with gentamycin (50 µg/mL). Two-electrode voltage clamp recordings were performed using a GeneClamp 500 amplifier (Axon Instruments, Union City, CA, USA), and the data were filtered at 20 Hz and digitized at 100 Hz by an AD converter L780 (LCard, Moscow, Russia) using in-house software. To induce transient and/or sustained currents, two different protocols with different conditioning pH were used. Microelectrodes were filled with a 3 M KCl solution. The working buffer solution was ND-96 titrated by NaOH to pH 7.8 or 7.3. The solution for the pH shift was constructed based on the ND-96 solution, in which 5 mM HEPES was replaced with 10 mM acetic acid (pH 4.0) or 10 mM MES (pH 5.5) in a supplementary 0.1% BSA solution. The duration of the activation pulses was 3.5 s.
The analysis of the electrophysiological data was performed using the OriginPro 8.6 programme.
In general terms: Two-electrode voltage clamp holds a large cell at a set potential and records current.

Another series concerns hERG channels. The conditions noted are these: cited from earlier work. The protocol:
Moreover, APETx2 potentiates rat ASIC1b and ASIC2a at concentrations of 3–10 µM (30–100-fold higher than its ASIC3 inhibitory concentration), which may have implications for its use in in vivo experiments ...

Bridge positions count the residues as written; N and C are the ends. Ends that are not written are not given here.

Consider `CC(C)C1c2cc(C3CC3c3ccc4cc(C(=N)N)ccc4c3)ccc2CCN1C` (stereo not drawn) [A-317567], for which, in the series on ASIC3, the “Inhibition of ASIC3 sustained and transient currents” value was “blocked ASIC3’s sustained and transient currents”. In addition, in series [1], the “Analgesic effect, CFA inflammatory thermal hyperalgesia” value was “produced an analgesic effect”.

Consider `COc1cc2c(cc1OC)[C@@H]1Cc3ccc(OC)c(OC)c3CN1CC2` [Levo-tetrahydropalmatine, reference compound], for which the “Effect on amplitude of proton-gated currents” value in series [2] is listed as “decreased the amplitude of proton-gated currents”. In addition, the “Nociceptive response to intraplantar acetic acid” value in the series with animal models of pain (rats) is “inhibited the nociceptive response to intraplantar acetic acid injections”.

Regarding `N=C(N)NC(=O)c1nc(Cl)c(N)nc1N` [amiloride], the “Inhibition of ASICs / ASIC3” value with ASIC3 was “nonspecific inhibitory effect on ASICs”.

For `COc1ccc2ccc(=O)oc2c1CC=C(C)C` [osthol], the “Block of voltage-gated Na+-channels” value in series [3] is listed as “block voltage-gated Na^+-channels”. Further, the “Inhibition of ASIC3” value in the series with ASIC3 is listed as “inhibit ASIC3”.

For `O=C(O)c1ccccc1O` [salicylic acid], the “Inhibition of ASIC3 / ASICs currents” value with ASIC3 (sensory neurons and heterologous-expressed ASIC3) is “inhibit ASICs currents directly on sensory neurons and heterologous-expressed ASIC3 channels”.

In the case of `CCCCNc1ccc(C(=O)OCCN(C)C)cc1` [tetracaine], the “Inhibition of ASIC1b currents” value in the series on ASIC1b is “inhibited the ASIC1a and ASIC1b currents”. The “Inhibition of ASIC1a currents” value in the series on ASIC1a was “inhibited the ASIC1a and ASIC1b currents”. The “Inhibition of transient ASIC3 currents” value in the series on ASIC3 (dependence on extracellular pH) is given as “inhibit the transient ASIC3 currents in a concentration-dependent manner”.

With “GTACSCGNSKGIYWFYRPSCPTDRGYTGSCRYFLGTCCTPAD (disulfide 4-37, 6-30, 20-38) [APETx2]”, the “Travelled distance, time spent freezing, distance in the central area versus control” value with mice is given as “each of these differences was nonsignificant”. The compound also had an IC50 against human ASIC3 of 344 ± 80 nM. Moreover, the “Inhibition of hERG channels” value in the series on hERG channels is “reducing the maximal current amplitude and shifting the voltage dependence of activation to more positive potentials”.

In the case of “psalmotoxin 1 (EDCIPKWKGCVNRHGDCCEGLECWKRRRSFEVCVPKTPKT; UniProt P60514 1-40, looked up) [reference compound]”, in the series on animal models of pain (CNS), the “Analgesic effect by blockade of ASIC1a in CNS” value was “activation of the endogenous enkephalin pathway and potent analgesic effects”.

Usually IC50 stands for the concentration at which inhibition is half-maximal. Higher therefore signals weaker potency.
